Some results are limits rather than exact numbers.

The target in the assay is GPR17 (Homo sapiens, UniProt Q13304). Nature of the assay: Calcium mobilization functional assay (GPR17 Ca2+ assay). It is filed as cell-based. The arrangement: host or cells: Flp-In T-REx CHO. The settings on record: CHO hGPR17 cells, inhibition of 50 nM MDL29,951, Calcium 5 dye, FLIPR; read-out: Ca2+ assay pIC50 (converted). Here is the method: Flp-In T-REx CHO cells stably expressing human GPR17 receptor (CHO hGPR17) from Evi Kostenis' lab (Bonn University, Germany) were cultured at 37° C. in a humidified atmosphere of 5% CO2. Cells were grown in DMEM with Nutrient Mixture F-12 supplemented with hygromycin B (500 μg/mL) and blasticidin (30 μg/mL). Expression from the Flp-In locus was induced by treatment with doxycycline (1 μg/mL) for 16-20 h prior assays.
Sequence of GPR17 (Q13304 whole entry): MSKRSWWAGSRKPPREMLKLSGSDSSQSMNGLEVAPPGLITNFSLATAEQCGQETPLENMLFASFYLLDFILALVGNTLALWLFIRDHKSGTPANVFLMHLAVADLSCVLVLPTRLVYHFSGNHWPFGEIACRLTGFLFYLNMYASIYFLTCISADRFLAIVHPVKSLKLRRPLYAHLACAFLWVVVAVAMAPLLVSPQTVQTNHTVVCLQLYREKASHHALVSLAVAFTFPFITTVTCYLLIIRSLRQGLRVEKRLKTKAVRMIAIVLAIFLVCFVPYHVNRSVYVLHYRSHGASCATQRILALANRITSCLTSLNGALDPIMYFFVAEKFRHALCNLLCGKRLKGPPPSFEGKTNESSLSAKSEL
GPR17 is a G-protein coupled receptor. GPR17 activation triggers Gq-type G-protein signaling resulting in endoplasmic reticulum calcium (Ca^2+) stores release in cytosol which can be measured using Calcium 5 dye, a fluorescent indicator dye of cytosolic Ca^2+ levels. All Examples were tested in GPR17 Ca^2+ assay to determine (screen) their GPR17 modulating activity.
CHO hGPR17 were defrosted and seeded at a density of 20,000 cells per well into black 384-well plates with clear bottom. Cells were incubated overnight at 37° C. in a humidified atmosphere of 5% CO2. Sixteen to twenty hours after seeding, CHO hGPR17 were loaded for 60 min with Calcium 5 dye, a cytosolic Ca^2+ indicator fluorescent dye, according to manufacturer's instructions. Fluorescent signal relative to cytosolic Ca^2+ concentration was recorded over time at room temperature in FLIPR Tetra reader. […] Then, 50 nM MDL29,951, a GPR17 agonist, was added to the cells. Inhibitory effects of varying concentrations test compounds were measured and resulting plC50s were determined. […] Analysis and curve fitting were performed in ActivityBase XE using XLfit 4-parameter logistic equation y=A+((B−A)/(1+((C/x)^D))) where A, B, C and D stand for minimum y, maximum y, IC50 and slope, respectively.
The activities of the Example compounds tested are depicted in the table in Section B2B below. The activity ranges A, B and C refer to plC50 values in the Ca^2+ assay as follows: “A”: plC50<7.5, “B”: plC50 7.5<x≤ 8.5, “C”: plC50>8.5

With `COc1ccc2c(S(=O)(=O)Nc3cc(F)c(F)cc3F)c[nH]c2c1` [Compound I-2, 6-methoxy-N-(2,4,5-trifluorophenyl)-1H-indole-3-sulfonamide], the IC50 is > 31.6 nM. Then `O=S(=O)(Nc1ccc2ncsc2c1)c1c[nH]c2cc(Cl)ccc12` [Compound I-3, N-(1,3-benzothiazol-6-yl)-6-chloro-1H-indole-3-sulfonamide], with > 31.6 nM; and `O=S(=O)(Nc1ccc2c(c1)OCO2)c1c[nH]c2cc(Cl)ccc12` [Compound I-5, N-(1,3-benzodioxol-5-yl)-6-chloro-1H-indole-3-sulfonamide], with > 31.6 nM; and `COC(=O)c1ccc(NS(=O)(=O)c2c[nH]c3cc(Cl)ccc23)cc1` [Compound I-6, methyl 4-{[(6-chloro-1H-indol-3-yl)sulfonyl]amino}benzoate], with > 31.6 nM. Then `Cc1ccc(NS(=O)(=O)c2c[nH]c3cc(Cl)ccc23)cc1F` [Compound I-7, 6-chloro-N-(3-fluoro-4-methylphenyl)-1H-indole-3-sulfonamide], with > 31.6 nM. Then `O=S1(=O)CCc2ccc(NS(=O)(=O)c3c[nH]c4cc(Cl)ccc34)cc21` [Compound I-10, 6-chloro-N-(1,1-dioxido-2,3-dihydro-1-benzothiophen-6-yl)-1H-indole-3-sulfonamide], with > 31.6 nM; and `O=S(=O)(Nc1ccccc1F)c1c[nH]c2cc(Cl)ccc12` [Compound I-11, 6-chloro-N-(2-fluorophenyl)-1H-indole-3-sulfonamide], with > 31.6 nM; and `N#Cc1ccc(NS(=O)(=O)c2c[nH]c3ccc(Br)cc23)cc1` [Compound I-13, 5-bromo-N-(4-cyanophenyl)-1H-indole-3-sulfonamide], with > 31.6 nM. As for `N#Cc1ccc(NS(=O)(=O)c2c[nH]c3ccc(I)cc23)cc1` [Compound I-15, N-(4-cyanophenyl)-5-iodo-1H-indole-3-sulfonamide], the IC50 was > 31.6 nM. The value for `N#Cc1ccc(NS(=O)(=O)c2c[nH]c3c(Cl)cccc23)cc1` [Compound I-16, 7-chloro-N-(4-cyanophenyl)-1H-indole-3-sulfonamide] was > 31.6 nM.

As to `N#Cc1ccc(NS(=O)(=O)c2c[nH]c3ccc(Cl)cc23)cc1` [Compound I-17, 5-chloro-N-(4-cyanophenyl)-1H-indole-3-sulfonamide], the IC50 was > 31.6 nM. The value for `Cc1cc2c(S(=O)(=O)Nc3ccc(C#N)cc3)c[nH]c2cc1Br` [Compound I-18, 6-bromo-N-(4-cyanophenyl)-5-methyl-1H-indole-3-sulfonamide] was 3.16 to 31.6 nM; that for `N#Cc1ccc(NS(=O)(=O)c2c[nH]c3cc4c(cc23)OCO4)cc1` [Compound I-19, N-(4-cyanophenyl)-5H-[1,3]dioxolo[4,5-f]indole-7-sulfonamide] was > 31.6 nM; that for `Cc1ccc2c(S(=O)(=O)Nc3ccc(C#N)cc3)c[nH]c2c1` [Compound I-20, N-(4-cyanophenyl)-6-methyl-1H-indole-3-sulfonamide] was 3.16 to 31.6 nM. Consider `O=S(=O)(Nc1cc(F)cc(F)c1)c1c[nH]c2cc(Cl)ccc12` [Compound I-21, 6-chloro-N-(3,5-difluorophenyl)-1H-indole-3-sulfonamide], for which the IC50 was > 31.6 nM. The value for `C#Cc1ccc(NS(=O)(=O)c2c[nH]c3cc(Cl)ccc23)cc1` [Compound I-22, 6-chloro-N-(4-ethynylphenyl)-1H-indole-3-sulfonamide] was > 31.6 nM. Then `O=S(=O)(Nc1cccc(F)c1Cl)c1c[nH]c2cc(Cl)ccc12` [Compound I-23, 6-chloro-N-(2-chloro-3-fluorophenyl)-1H-indole-3-sulfonamide], with > 31.6 nM; and `O=S(=O)(Nc1ccccc1Cl)c1c[nH]c2cc(Cl)ccc12` [Compound I-26, 6-chloro-N-(2-chlorophenyl)-1H-indole-3-sulfonamide], with > 31.6 nM.

In the case of `Cc1cc2c(S(=O)(=O)Nc3cc(F)ccc3F)c[nH]c2cc1Br` [Compound I-27, 6-bromo-N-(2,5-difluorophenyl)-5-methyl-1H-indole-3-sulfonamide], the IC50 was > 31.6 nM. Then `CS(=O)(=O)c1ccc2c(S(=O)(=O)Nc3cc(F)ccc3F)c[nH]c2c1` [Compound I-28, N-(2,5-difluorophenyl)-6-(methylsulfonyl)-1H-indole-3-sulfonamide], with > 31.6 nM; and `Cc1ccc2c(S(=O)(=O)Nc3cccc4c3OCO4)c[nH]c2c1` [Compound I-29, N-(1,3-benzodioxol-4-yl)-6-methyl-1H-indole-3-sulfonamide], with > 31.6 nM. The value for `O=S(=O)(Nc1cc(F)ccc1F)c1c[nH]c2cc3c(cc12)OCO3` [Compound I-30, N-(2,5-difluorophenyl)-5H-[1,3]dioxolo[4,5-f]indole-7-sulfonamide] was > 31.6 nM; that for `O=S(=O)(Nc1cccc2c1OCO2)c1c[nH]c2cc(F)ccc12` [Compound I-31, N-(1,3-benzodioxol-4-yl)-6-fluoro-1H-indole-3-sulfonamide] was > 31.6 nM; that for `Cc1ccc2c(S(=O)(=O)Nc3cc(F)ccc3F)c[nH]c2c1` [Compound I-32, N-(2,5-difluorophenyl)-6-methyl-1H-indole-3-sulfonamide] was > 31.6 nM. The value for `CS(=O)(=O)c1ccc2c(S(=O)(=O)Nc3cccc4c3OCO4)c[nH]c2c1` [Compound I-33, N-(1,3-benzodioxol-4-yl)-6-(methylsulfonyl)-1H-indole-3-sulfonamide] was > 31.6 nM. For the compound `C#Cc1ccc(NS(=O)(=O)c2c[nH]c3cc(S(C)(=O)=O)ccc23)cc1` [Compound I-34, N-(4-ethynylphenyl)-6-(methylsulfonyl)-1H-indole-3-sulfonamide], the IC50 was > 31.6 nM. Then `Cc1cc2c(S(=O)(=O)Nc3cccc4c3OCO4)c[nH]c2cc1Br` [Compound I-35, N-(1,3-benzodioxol-4-yl)-6-bromo-5-methyl-1H-indole-3-sulfonamide], with > 31.6 nM; and `CS(=O)(=O)c1ccc2c(S(=O)(=O)Nc3ccc4c(c3)OC(F)(F)O4)c[nH]c2c1` [Compound I-36, N-(2,2-difluoro-1,3-benzodioxol-5-yl)-6-(methylsulfonyl)-1H-indole-3-sulfonamide], with > 31.6 nM. The value for `O=S(=O)(Nc1cc(F)ccc1F)c1c[nH]c2cc(F)ccc12` [Compound I-37, N-(2,5-difluorophenyl)-6-fluoro-1H-indole-3-sulfonamide] was > 31.6 nM. As for `O=S(=O)(Nc1cc(F)ccc1Br)c1c[nH]c2cc(Cl)ccc12` [Compound I-38, N-(2-bromo-5-fluorophenyl)-6-chloro-1H-indole-3-sulfonamide], the IC50 is > 31.6 nM.

Turning to `O=S(=O)(Nc1cc(Cl)cc(Cl)n1)c1c[nH]c2cc(Cl)ccc12` [Compound I-40, 6-chloro-N-(4,6-dichloropyridin-2-yl)-1H-indole-3-sulfonamide], the IC50 is > 31.6 nM.

`O=S(=O)(Nc1cc(F)c(F)cc1F)c1c[nH]c2cc(F)ccc12` [Compound I-41, 6-fluoro-N-(2,4,5-trifluorophenyl)-1H-indole-3-sulfonamide]: the IC50 is > 31.6 nM. The value for `O=S(=O)(Nc1ccc(I)cc1F)c1c[nH]c2cc(C(F)(F)F)ccc12` [Compound I-42, N-(2-fluoro-4-iodophenyl)-6-(trifluoromethyl)-1H-indole-3-sulfonamide] was > 31.6 nM; that for `O=S(=O)(Nc1ccc(Cl)cc1F)c1c[nH]c2cc3c(cc12)OCO3` [Compound I-43, N-(4-chloro-2-fluorophenyl)-5H-[1,3]dioxolo[4,5-f]indole-7-sulfonamide] was > 31.6 nM; that for `O=S(=O)(Nc1ccc(Cl)cc1F)c1c[nH]c2c1ccc1ccccc12` [Compound I-45, N-(4-chloro-2-fluorophenyl)-1H-benzo[g]indole-3-sulfonamide] was > 31.6 nM.

Regarding `O=S(=O)(Nc1cc(F)c(F)cc1F)c1c[nH]c2cc3c(cc12)OCO3` [Compound I-46, N-(2,4,5-trifluorophenyl)-5H-[1,3]dioxolo[4,5-f]indole-7-sulfonamide], the IC50 is > 31.6 nM. Then `O=S(=O)(Nc1ccc(I)cc1F)c1c[nH]c2c1ccc1ccccc12` [Compound I-47, N-(2-fluoro-4-iodophenyl)-1H-benzo[g]indole-3-sulfonamide], with > 31.6 nM; and `O=S(=O)(Nc1ccc(Cl)cc1F)c1c[nH]c2cc(F)ccc12` [Compound I-51, N-(4-chloro-2-fluorophenyl)-6-fluoro-1H-indole-3-sulfonamide], with > 31.6 nM; and `O=S(=O)(Nc1ccc(Cl)cc1F)c1c[nH]c2cc(C(F)(F)F)ccc12` [Compound I-53, N-(4-chloro-2-fluorophenyl)-6-(trifluoromethyl)-1H-indole-3-sulfonamide], with > 31.6 nM.

These data come from patent US12071404B2, “Aza (indole)-, benzothiophene-, and benzofuran-3-sulfonamides” (UCB Pharma GmbH, priority 2016, dated 2024).
